According to US11834432B2, “Substituted amino six-membered nitric heterocyclic ring compound and preparation and use thereof” (SHANGHAI INSTITUTE OF MATERIA MEDICA, CHINESE ACADEMY OF …, priority 2016, dated 2023):
Where “and” joins values, the source holds several entries; their conditions need not be identical. Equal entries are not always repeated.

What was measured:
SNU16 cells = assay: Inhibition of proliferation of SNU16 cells (CCK-8); assay type: cell-based; settings: Homo sapiens, SNU-16, 72 h
Description: The inhibitory effect on proliferation of SNU16 cells of a compound was examined by CCK-8 Cell Counting Kit (Dojindo). The steps are as follows: SNUI 6 cells at Logarithmic growth phase were seeded in a 96-well culture plate at appropriate density, 90 ul for each well. After cultured overnight, different concentrations of drugs were added and treated for 72 h, while solvent control well was set (negative control). After 72 h, the influence of the compound on the proliferation of cells was observed by CCK-8 cell counting kit (Dojindo). 10 μL of CCK-8 reagent was added to each well. After incubated for 2-4 hours in a 37° C. incubator, the plate was read with SpectraMax 190 microplate reader at wavelength 450 nm.
(§1) The IC50 values were obtained by four-parameter regression analysis using the software supplied with the microplate reader.

IGF1R = IGF1R (Homo sapiens (Human), UniProt P08069); assay: In vitro tyrosine kinase inhibition screening (ELISA); assay type: biochemical; settings: 1 h
Description: (§2) 4. In Vitro Screening Test on Tyrosine Kinase Activity Inhibition Screening method: Enzyme-linked immunosorbent assay (ELISA) tyrosine kinase: Enzyme spectrum Time of action: 1 h

ErbB2 = ErbB2 (Homo sapiens (Human), UniProt P04626); assay: as above; assay type: biochemical; settings: 1 h
Description: as §2

PDGFR-β = PDGFR-β (Homo sapiens (Human), UniProt P09619); assay: as above; assay type: biochemical; settings: 1 h
Description: as §2

c-Src = c-Src (Homo sapiens (Human), UniProt P12931); assay: as above; assay type: biochemical; settings: 1 h
Description: as §2

PDGFR-α = PDGFR-α (Homo sapiens (Human), UniProt P16234); assay: as above; assay type: biochemical; settings: 1 h
Description: as §2

ErbB4 = ErbB4 (Homo sapiens (Human), UniProt Q15303); assay: as above; assay type: biochemical; settings: 1 h
Description: as §2

EGFR = EGFR (Homo sapiens (Human), UniProt P00533); assay: as above; assay type: biochemical; settings: 1 h
Description: as §2

RET = RET (Homo sapiens (Human), UniProt P07949); assay: as above; assay type: biochemical; settings: 1 h
Description: as §2

c-Met = c-Met (Homo sapiens (Human), UniProt P08581); assay: as above; assay type: biochemical; settings: 1 h
Description: as §2

ABL = ABL (Homo sapiens (Human), UniProt P00519); assay: as above; assay type: biochemical; settings: 1 h
Description: as §2

VEGFR-1 = VEGFR-1 (Homo sapiens (Human), UniProt P17948); assay: as above; assay type: biochemical; settings: 1 h
Description: as §2

VEGFR-2 = VEGFR-2 (Homo sapiens (Human), UniProt P35968); assay: as above; assay type: biochemical; settings: 1 h
Description: as §2

EPH-A2 = EPH-A2 (Homo sapiens (Human), UniProt P29317); assay: as above; assay type: biochemical; settings: 1 h
Description: as §2

[1] = tested on: human gastric cancer SNU-16 subcutaneously transplanted tumor; assay: Growth of subcutaneously transplanted tumor in human gastric cancer SNU-16 nude mice; assay type: in vivo
Description: The human gastric cancer SNU-16 cell strain was preserved in our laboratory.
S10 groups (30 mg/kg and 10 mg/kg) were orally administered once a day for 21 days; AZD4547 group (10 mg/kg) was administered orally once a day for 21 days; solvent control group was given the same amount of water for injection.

[2] = target: FGFR1 kinase domain recombinant protein (Homo sapiens (Human), UniProt P11362); assay: Inhibition of receptor tyrosine kinase FGFR1 activity (ELISA); assay type: biochemical
Description: 1. Preliminary Evaluation Inhibition on Receptor Tyrosine Kinase FGFR1 Activity of Compound
1. […] The liquid from the well was discarded. The plate was washed for three times with T-PBS (0.1% Tween-20 in potassium-free PBS, 200 μL/well), 5 minutes for each time. The elisa plate was dried in 37° C. dryer for 1-2 hours.
2. 49 μL of ATP solution diluted in reaction buffer (50 mM HEPES pH 7.4, 50 mM MgCl2, 0.5 mM MnCl2, 0.2 mM Na3VO4, 1 mM DTT) was added into each well, and 1 μL of the test compound was added to each well, and then 50 μL of FGFR1 kinase domain recombinant protein diluted in reaction buffer was added to initiate the reaction, and two control wells without ATP were required for each experiment. The reaction was performed on a Shaker (100 rpm) at 37° C. for 1 hour. The liquid from the well was discarded, and the plate was washed with T-PBS for three times.
3. The antibody PY99 dilution (antibody diluted 1:500 in T-PBS with BSA 5 mg/mL) was added at 100 μL/well, and shaken for 0.5 hours on a 37° C. shaker. The liquid from the well was discarded, and the plate was washed with T-PBS for three times.
4. The horseradish peroxidase-labeled goat anti-mouse second antibody dilution (antibody diluted 1:2000 in T-PBS with BSA 5 mg/mL) was added at 100 μL/well, and shaken for 0.5 hours on a 37° C. shaker. The liquid from the well was discarded, and the plate was washed with T-PBS for three times.
5. 2 mg/mL OPD coloration solution (diluted with 0.1 M citric acid-sodium citrate buffer containing 0.03% H2O2 (pH=5.4)) was added at 100 μL/well, and reacted for 1-10 minutes at 25° C. in darkness.
6. The reaction was quenched with 50 μL/well of 2M H2SO4, and the plate was read using a tunable microplate microplate reader VERSAmax at 490 nm.
as §1

Chain of EPH-A2 (P29317 24-976): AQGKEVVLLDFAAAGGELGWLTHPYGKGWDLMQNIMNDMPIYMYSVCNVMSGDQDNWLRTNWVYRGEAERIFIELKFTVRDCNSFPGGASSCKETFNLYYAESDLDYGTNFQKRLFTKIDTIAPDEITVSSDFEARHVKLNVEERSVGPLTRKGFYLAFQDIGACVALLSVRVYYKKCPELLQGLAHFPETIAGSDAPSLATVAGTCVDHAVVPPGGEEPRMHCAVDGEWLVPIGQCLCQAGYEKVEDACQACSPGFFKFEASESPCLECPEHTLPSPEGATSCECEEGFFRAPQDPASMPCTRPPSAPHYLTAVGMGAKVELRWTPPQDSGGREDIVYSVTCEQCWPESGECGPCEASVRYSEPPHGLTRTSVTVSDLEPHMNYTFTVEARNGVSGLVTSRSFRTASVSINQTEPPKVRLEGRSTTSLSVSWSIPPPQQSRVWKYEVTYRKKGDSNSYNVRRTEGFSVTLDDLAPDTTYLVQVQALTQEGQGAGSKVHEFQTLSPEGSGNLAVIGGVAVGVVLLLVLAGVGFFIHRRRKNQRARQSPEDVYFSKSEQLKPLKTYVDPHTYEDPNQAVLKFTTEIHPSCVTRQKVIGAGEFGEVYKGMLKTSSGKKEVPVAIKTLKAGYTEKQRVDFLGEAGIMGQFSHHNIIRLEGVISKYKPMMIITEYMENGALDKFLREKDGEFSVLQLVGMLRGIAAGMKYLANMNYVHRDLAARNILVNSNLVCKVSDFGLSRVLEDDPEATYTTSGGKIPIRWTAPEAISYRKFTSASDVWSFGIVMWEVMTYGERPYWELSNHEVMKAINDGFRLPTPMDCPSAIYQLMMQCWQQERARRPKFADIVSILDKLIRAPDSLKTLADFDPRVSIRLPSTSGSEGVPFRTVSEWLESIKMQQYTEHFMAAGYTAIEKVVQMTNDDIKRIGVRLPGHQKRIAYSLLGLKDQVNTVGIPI
Chain of PDGFR-β (P09619 33-1106): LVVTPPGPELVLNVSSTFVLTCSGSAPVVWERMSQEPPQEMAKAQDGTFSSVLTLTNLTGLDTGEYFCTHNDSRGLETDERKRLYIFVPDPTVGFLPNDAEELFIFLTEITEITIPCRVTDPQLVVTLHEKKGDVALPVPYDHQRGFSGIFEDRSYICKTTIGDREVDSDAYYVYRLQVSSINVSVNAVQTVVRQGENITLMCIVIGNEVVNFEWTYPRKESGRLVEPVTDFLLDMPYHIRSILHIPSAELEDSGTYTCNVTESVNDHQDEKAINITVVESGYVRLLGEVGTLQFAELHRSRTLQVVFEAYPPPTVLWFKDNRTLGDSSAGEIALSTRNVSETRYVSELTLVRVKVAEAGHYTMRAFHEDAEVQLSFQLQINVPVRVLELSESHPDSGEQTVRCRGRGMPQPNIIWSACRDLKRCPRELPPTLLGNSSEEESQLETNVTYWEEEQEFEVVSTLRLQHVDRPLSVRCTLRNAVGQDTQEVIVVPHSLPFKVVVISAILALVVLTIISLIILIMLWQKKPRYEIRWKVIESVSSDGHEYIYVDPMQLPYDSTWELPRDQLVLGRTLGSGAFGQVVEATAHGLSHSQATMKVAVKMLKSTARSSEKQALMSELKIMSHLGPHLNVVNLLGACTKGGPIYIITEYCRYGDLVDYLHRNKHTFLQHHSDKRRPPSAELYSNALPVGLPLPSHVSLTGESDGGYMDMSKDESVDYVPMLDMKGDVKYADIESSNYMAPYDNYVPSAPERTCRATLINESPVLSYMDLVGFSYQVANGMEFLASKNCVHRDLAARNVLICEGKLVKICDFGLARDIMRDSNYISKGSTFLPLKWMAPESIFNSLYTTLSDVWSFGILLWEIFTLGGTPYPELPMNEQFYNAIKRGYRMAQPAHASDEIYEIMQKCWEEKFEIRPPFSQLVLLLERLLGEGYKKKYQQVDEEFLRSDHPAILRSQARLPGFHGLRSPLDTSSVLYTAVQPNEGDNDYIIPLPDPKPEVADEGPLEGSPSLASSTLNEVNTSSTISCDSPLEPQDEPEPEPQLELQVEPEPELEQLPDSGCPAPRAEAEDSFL
Chain of EGFR (P00533 25-1210, species assumed): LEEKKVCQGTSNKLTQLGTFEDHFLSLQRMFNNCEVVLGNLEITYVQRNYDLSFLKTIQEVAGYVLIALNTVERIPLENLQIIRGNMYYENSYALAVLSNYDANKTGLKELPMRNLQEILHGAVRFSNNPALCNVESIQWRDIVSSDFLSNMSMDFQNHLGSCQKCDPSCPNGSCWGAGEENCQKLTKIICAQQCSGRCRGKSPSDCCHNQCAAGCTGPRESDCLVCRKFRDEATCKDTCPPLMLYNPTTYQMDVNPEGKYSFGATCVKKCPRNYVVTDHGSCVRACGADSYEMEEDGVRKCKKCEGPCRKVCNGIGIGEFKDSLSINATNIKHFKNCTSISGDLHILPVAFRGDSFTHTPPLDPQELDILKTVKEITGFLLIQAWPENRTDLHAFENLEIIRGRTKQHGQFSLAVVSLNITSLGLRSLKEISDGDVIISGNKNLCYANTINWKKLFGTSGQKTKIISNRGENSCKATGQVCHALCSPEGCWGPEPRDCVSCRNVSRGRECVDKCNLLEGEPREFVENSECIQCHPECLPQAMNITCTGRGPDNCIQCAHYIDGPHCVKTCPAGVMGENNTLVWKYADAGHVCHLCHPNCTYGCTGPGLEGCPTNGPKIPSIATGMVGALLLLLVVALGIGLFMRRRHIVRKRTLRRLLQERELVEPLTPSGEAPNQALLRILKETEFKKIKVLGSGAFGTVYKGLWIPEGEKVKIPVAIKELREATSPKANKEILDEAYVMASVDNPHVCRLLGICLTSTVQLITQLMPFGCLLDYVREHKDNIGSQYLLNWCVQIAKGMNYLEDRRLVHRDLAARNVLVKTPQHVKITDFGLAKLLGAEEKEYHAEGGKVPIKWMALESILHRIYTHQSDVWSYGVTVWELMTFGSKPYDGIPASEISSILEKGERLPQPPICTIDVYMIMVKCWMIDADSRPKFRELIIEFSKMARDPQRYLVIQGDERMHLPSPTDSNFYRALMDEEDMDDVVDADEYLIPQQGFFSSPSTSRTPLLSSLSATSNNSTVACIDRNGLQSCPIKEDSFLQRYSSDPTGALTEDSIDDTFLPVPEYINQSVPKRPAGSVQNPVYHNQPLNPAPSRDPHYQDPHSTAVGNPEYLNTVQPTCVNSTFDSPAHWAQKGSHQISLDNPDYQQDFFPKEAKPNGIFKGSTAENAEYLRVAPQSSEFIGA
Chain of PDGFR-α (P16234 24-1089): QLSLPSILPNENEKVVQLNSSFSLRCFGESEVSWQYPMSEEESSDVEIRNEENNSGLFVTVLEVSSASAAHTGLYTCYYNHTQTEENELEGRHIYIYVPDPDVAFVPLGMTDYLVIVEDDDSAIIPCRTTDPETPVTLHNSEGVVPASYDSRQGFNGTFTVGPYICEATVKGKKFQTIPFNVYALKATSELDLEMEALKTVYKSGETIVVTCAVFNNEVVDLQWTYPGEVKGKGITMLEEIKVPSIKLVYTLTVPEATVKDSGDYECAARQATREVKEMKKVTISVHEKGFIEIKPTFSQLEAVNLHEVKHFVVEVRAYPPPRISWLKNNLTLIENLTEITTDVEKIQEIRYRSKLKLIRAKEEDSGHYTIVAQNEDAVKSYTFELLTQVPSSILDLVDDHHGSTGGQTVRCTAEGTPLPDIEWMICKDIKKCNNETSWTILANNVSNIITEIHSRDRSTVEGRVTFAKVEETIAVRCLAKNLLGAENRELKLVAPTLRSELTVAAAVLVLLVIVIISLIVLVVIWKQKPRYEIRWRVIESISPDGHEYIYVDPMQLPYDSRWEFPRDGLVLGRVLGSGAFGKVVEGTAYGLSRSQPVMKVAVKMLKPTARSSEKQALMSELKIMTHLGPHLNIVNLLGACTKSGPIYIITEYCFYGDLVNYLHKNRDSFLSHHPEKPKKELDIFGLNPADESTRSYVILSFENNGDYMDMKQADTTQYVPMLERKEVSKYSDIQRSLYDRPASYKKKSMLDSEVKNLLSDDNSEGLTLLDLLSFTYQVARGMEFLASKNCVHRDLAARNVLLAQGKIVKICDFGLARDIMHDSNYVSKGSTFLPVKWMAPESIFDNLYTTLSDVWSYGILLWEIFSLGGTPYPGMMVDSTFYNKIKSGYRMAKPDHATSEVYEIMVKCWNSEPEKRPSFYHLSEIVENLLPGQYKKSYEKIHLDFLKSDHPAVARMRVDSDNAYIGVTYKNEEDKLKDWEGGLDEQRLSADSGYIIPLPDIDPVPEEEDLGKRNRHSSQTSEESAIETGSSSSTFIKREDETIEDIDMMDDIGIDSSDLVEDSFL
Chain of FGFR1 kinase domain recombinant protein (P11362 478-767): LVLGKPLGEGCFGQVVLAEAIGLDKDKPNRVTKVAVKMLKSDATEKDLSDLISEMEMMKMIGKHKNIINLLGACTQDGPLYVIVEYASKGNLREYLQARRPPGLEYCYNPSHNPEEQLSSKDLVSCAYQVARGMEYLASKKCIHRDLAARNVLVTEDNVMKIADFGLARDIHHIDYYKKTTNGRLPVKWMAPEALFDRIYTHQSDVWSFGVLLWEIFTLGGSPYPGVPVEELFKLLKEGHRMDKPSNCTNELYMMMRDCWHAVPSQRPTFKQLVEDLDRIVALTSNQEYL
Chain of c-Src (P12931 whole entry, looked up, species assumed): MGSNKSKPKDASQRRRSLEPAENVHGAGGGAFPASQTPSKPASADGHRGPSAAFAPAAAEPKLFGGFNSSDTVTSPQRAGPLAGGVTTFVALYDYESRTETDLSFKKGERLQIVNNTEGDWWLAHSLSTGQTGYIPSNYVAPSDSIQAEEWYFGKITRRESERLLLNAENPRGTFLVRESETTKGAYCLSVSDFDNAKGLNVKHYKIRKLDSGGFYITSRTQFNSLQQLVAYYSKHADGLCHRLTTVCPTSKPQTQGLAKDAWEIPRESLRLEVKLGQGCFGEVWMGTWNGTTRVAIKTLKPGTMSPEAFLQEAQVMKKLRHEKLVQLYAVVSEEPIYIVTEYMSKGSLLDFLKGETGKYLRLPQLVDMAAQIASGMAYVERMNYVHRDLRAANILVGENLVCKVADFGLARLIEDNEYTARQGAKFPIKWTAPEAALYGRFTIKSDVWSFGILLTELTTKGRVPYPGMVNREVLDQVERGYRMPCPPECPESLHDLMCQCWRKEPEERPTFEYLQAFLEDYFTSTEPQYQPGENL

Which results are given for `CNC(=O)c1cccc2cc(Oc3ccnc(NC(=O)c4ccc(N5C[C@@H](C)N[C@@H](C)C5)cc4)c3)ccc12` [Compound S10]?
IC50 (SNU16 cells): 6.1 nM; inhibition at 0.01 µM (SNU16 cells; 10 nM, 72 h, read-out: Inhibition ratio (%)): 59.6%; inhibition at 0.1 µM (SNU16 cells; 100 nM, 72 h, read-out: Inhibition ratio (%)): 62.1%; inhibition at 1 µM (SNU16 cells; 1000 nM, 72 h, read-out: Inhibition ratio (%)): 59.7%; Inhibition ratio (%) IGF1R (IGF1R; 10 nM): 23.5%; Inhibition ratio (%) IGF1R (IGF1R; 1000 nM): 11.0%; Inhibition ratio (%) ErbB2 (ErbB2; 10 nM): 17.4%; Inhibition ratio (%) ErbB2 (ErbB2; 1000 nM): 22.2%; Inhibition ratio (%) PDGFR-β (PDGFR-β; 10 nM): 56.4%; Inhibition ratio (%) PDGFR-β (PDGFR-β; 1000 nM): 87.8%; Inhibition ratio (%) c-Src (c-Src; 10 nM): 20.3%; Inhibition ratio (%) c-Src (c-Src; 1000 nM): 43.6%; Inhibition ratio (%) PDGFR-α (PDGFR-α; 10 nM): 50.2%; Inhibition ratio (%) PDGFR-α (PDGFR-α; 1000 nM): 87.1%; Inhibition ratio (%) ErbB4 (ErbB4; 10 nM): 2.0%; Inhibition ratio (%) ErbB4 (ErbB4; 1000 nM): 7.0%; Inhibition ratio (%) EGFR (EGFR; 10 nM): 9.6%; Inhibition ratio (%) EGFR (EGFR; 1000 nM): 11.3%; Inhibition ratio (%) RET (RET; 10 nM): 13.2%; Inhibition ratio (%) RET (RET; 1000 nM): 90.5%; Inhibition ratio (%) c-Met (c-Met; 10 nM): 11.2%; Inhibition ratio (%) c-Met (c-Met; 1000 nM): 29.5%; Inhibition ratio (%) ABL (ABL; 10 nM): 17.5%; Inhibition ratio (%) ABL (ABL; 1000 nM): 28.8%; Inhibition ratio (%) VEGFR-1 (VEGFR-1; 10 nM): 75.6%; Inhibition ratio (%) VEGFR-1 (VEGFR-1; 1000 nM): 100.0%; Inhibition ratio (%) VEGFR-2 (VEGFR-2; 10 nM): 90.4%; Inhibition ratio (%) VEGFR-2 (VEGFR-2; 1000 nM): 98.7%; Inhibition ratio (%) EPH-A2 (EPH-A2; 10 nM): 4.2%; Inhibition ratio (%) EPH-A2 (EPH-A2; 1000 nM): 7.7%; Body weight (g) d0 ([1]; 10 mg/kg po qd/21, d0): 19.9 g; TV (mm^3, mean ± SD) d0 ([1]; 10 mg/kg po qd/21, d0): 106 ± 33 mm^3; Body weight (g) d21 ([1]; 10 mg/kg po qd/21, d21): 21.4 g; RTV (mean ± SD) ([1]; 10 mg/kg po qd/21, d21): 3.48 ± 2.29; T/C (%) ([1]; 10 mg/kg po qd/21, d21): 25.35% and 25%; TV (mm^3, mean ± SD) d21 ([1]; 10 mg/kg po qd/21, d21): 322 ± 107 mm^3; Body weight change, condition and mortality of mice during the experiment ([1]; 30 mg/kg po once a day for 21 days): average weight of mice in the S10 group (30 mg/kg) was decreased, but the mice were still in good condition and no mice died; Body weight (g) d0 ([1]; 30 mg/kg po qd/21, d0): 21.2 g; TV (mm^3, mean ± SD) d0 ([1]; 30 mg/kg po qd/21, d0): 106 ± 22 mm^3; Body weight (g) d21 ([1]; 30 mg/kg po qd/21, d21): 17.0 g; RTV (mean ± SD) ([1]; 30 mg/kg po qd/21, d21): 1.19 ± 0.38; T/C (%) ([1]; 30 mg/kg po qd/21, d21): 8.67% and 9%; TV (mm^3, mean ± SD) d21 ([1]; 30 mg/kg po qd/21, d21): 125 ± 47 mm^3; IC50 [2]: < 10 nM; inhibition at 0.1 µM ([2]; 1 h, read-out: Inhibition ratio (%) @ 0.1 μM): 94%
